Test system: imiquimod-induced psoriasis
Assay: Imiquimod-induced psoriasis model
Type: in vivo, mice
Settings: for Mean scores of the presence of peeling on the skin of animals at the area of induction of psoriasis / Mean scores of the presence of erythema on the skin of animals at the area of induction of psoriasis / Mean scores of the presence of induration on the skin of animals at the area of induction of psoriasis: mean ± SEM; for Mean PASI Scores in IMI-Psoriasis Model: mice
How it was run: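 Psoriasis-like dermatitis induced in mice by daily dorsal imiquimod cream (Days 1–14); dosing with Compound A (5% DMSO/40% PEG-400/55% saline vehicle) began Day 8. Read-outs: summed 0–4 scores for erythema, induration and peeling daily to Day 15, plus terminal spleen ratio, behaviour and serum cytokines.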

[1] = IMI + 10 mg/kg, D8 (before start of treatment)

## COCCn1cc(-c2ccccc2)c(-c2cn(C)c(=O)c3[nH]c(-c4cnn(C(F)(F)F)c4)cc23)cc1=O [Compound B, 4-(1-(2-methoxyethyl)-2-oxo-5-phenyl-1,2-dihydropyridin-4-yl)-6-methyl-2-(1-(trifluoromethyl)-1H-pyrazol-4-yl)-1,6-dihydro-7H-pyrrolo[2,3-c]pyridin-7-one]
IMI + 3 mg/kg, D15
  Mean scores of the presence of peeling on the skin of animals at the area of induction of psoriasis: 1.3 ± 0.3
  Mean PASI Scores in IMI-Psoriasis Model: 3.5 ± 0.5
[1]
  Mean scores of the presence of erythema on the skin of animals at the area of induction of psoriasis: 2.1 ± 0.1
  Mean scores of the presence of induration on the skin of animals at the area of induction of psoriasis: 2.8 ± 0.2
  Mean scores of the presence of peeling on the skin of animals at the area of induction of psoriasis: 2.4 ± 0.3
  Mean PASI Scores in IMI-Psoriasis Model: 7.3 ± 0.4
IMI + 10 mg/kg, D9
  Mean scores of the presence of erythema on the skin of animals at the area of induction of psoriasis: 1.5 ± 0.2
  Mean scores of the presence of induration on the skin of animals at the area of induction of psoriasis: 2.0 ± 0.2
  Mean scores of the presence of peeling on the skin of animals at the area of induction of psoriasis: 2.1 ± 0.2
  Mean PASI Scores in IMI-Psoriasis Model: 5.6 ± 0.4
IMI + 10 mg/kg, D10
  Mean scores of the presence of erythema on the skin of animals at the area of induction of psoriasis: 1.8 ± 0.2
  Mean scores of the presence of induration on the skin of animals at the area of induction of psoriasis: 2.1 ± 0.2
  Mean scores of the presence of peeling on the skin of animals at the area of induction of psoriasis: 2.0 ± 0.3
  Mean PASI Scores in IMI-Psoriasis Model: 5.9 ± 0.5
IMI + 10 mg/kg, D11
  Mean scores of the presence of erythema on the skin of animals at the area of induction of psoriasis: 1.5 ± 0.2
  Mean scores of the presence of induration on the skin of animals at the area of induction of psoriasis: 1.5 ± 0.2
  Mean scores of the presence of peeling on the skin of animals at the area of induction of psoriasis: 1.9 ± 0.1
  Mean PASI Scores in IMI-Psoriasis Model: 4.9 ± 0.3
IMI + 10 mg/kg, D12
  Mean scores of the presence of erythema on the skin of animals at the area of induction of psoriasis: 0.9 ± 0.3
  Mean scores of the presence of induration on the skin of animals at the area of induction of psoriasis: 1.1 ± 0.1
  Mean scores of the presence of peeling on the skin of animals at the area of induction of psoriasis: 1.0 ± 0.2
  Mean PASI Scores in IMI-Psoriasis Model: 3.1 ± 0.5
IMI + 10 mg/kg, D13
  Mean scores of the presence of erythema on the skin of animals at the area of induction of psoriasis: 0.6 ± 0.3
  Mean scores of the presence of induration on the skin of animals at the area of induction of psoriasis: 1.0 ± 0.0
  Mean scores of the presence of peeling on the skin of animals at the area of induction of psoriasis: 0.4 ± 0.2
  Mean PASI Scores in IMI-Psoriasis Model: 2.0 ± 0.4
IMI + 10 mg/kg, D14
  Mean scores of the presence of erythema on the skin of animals at the area of induction of psoriasis: 0.1 ± 0.1
  Mean scores of the presence of induration on the skin of animals at the area of induction of psoriasis: 0.6 ± 0.2
  Mean scores of the presence of peeling on the skin of animals at the area of induction of psoriasis: 0.5 ± 0.2
  Mean PASI Scores in IMI-Psoriasis Model: 1.3 ± 0.3
IMI + 10 mg/kg, D15
  Mean scores of the presence of erythema on the skin of animals at the area of induction of psoriasis: 0.1 ± 0.1
  Mean scores of the presence of induration on the skin of animals at the area of induction of psoriasis: 0.4 ± 0.2
  Mean scores of the presence of peeling on the skin of animals at the area of induction of psoriasis: 0.4 ± 0.2
  Mean PASI Scores in IMI-Psoriasis Model: 0.9 ± 0.4
IMI + 1 mg/kg, D8 (before start of treatment)
  Mean PASI Scores in IMI-Psoriasis Model: 7.0 ± 0.3
IMI + 1 mg/kg, D9
  Mean PASI Scores in IMI-Psoriasis Model: 6.8 ± 0.6
IMI + 1 mg/kg, D10
  Mean PASI Scores in IMI-Psoriasis Model: 6.0 ± 0.3
IMI + 1 mg/kg, D11
  Mean PASI Scores in IMI-Psoriasis Model: 6.5 ± 0.5
IMI + 1 mg/kg, D12
  Mean PASI Scores in IMI-Psoriasis Model: 5.6 ± 0.3
IMI + 1 mg/kg, D13
  Mean PASI Scores in IMI-Psoriasis Model: 5.6 ± 0.5
IMI + 1 mg/kg, D14
  Mean PASI Scores in IMI-Psoriasis Model: 5.6 ± 0.4
IMI + 1 mg/kg, D15
  Mean PASI Scores in IMI-Psoriasis Model: 5.1 ± 0.4
IMI + 3 mg/kg, D8 (before start of treatment)
  Mean PASI Scores in IMI-Psoriasis Model: 7.4 ± 0.3
IMI + 3 mg/kg, D9
  Mean PASI Scores in IMI-Psoriasis Model: 6.0 ± 0.4
IMI + 3 mg/kg, D10
  Mean PASI Scores in IMI-Psoriasis Model: 5.8 ± 0.4
IMI + 3 mg/kg, D11
  Mean PASI Scores in IMI-Psoriasis Model: 5.4 ± 0.3
IMI + 3 mg/kg, D12
  Mean PASI Scores in IMI-Psoriasis Model: 5.4 ± 0.3
IMI + 3 mg/kg, D13
  Mean PASI Scores in IMI-Psoriasis Model: 5.0 ± 0.4
IMI + 3 mg/kg, D14
  Mean PASI Scores in IMI-Psoriasis Model: 4.6 ± 0.4
mouse, in vivo
  erythema, induration and peeling of the skin at the area of induction: significantly reduced
Relative to vehicle-treated psoriasis animals
  use of enrichment (nesting): similarly restored use of nesting
